From article PMC9960274, “Peptidic Inhibitors and a Fluorescent Probe for the Selective Inhibition and Labelling of Factor XIIIa Transglutaminase” (Molecules, 2023)
Non-standard residues stand in square brackets, D forms with d. Residues, ends and D or L forms follow the SMILES beside them. ξ: configuration not given here. *: point of attachment. ONp = O=[N+]([O-])c1ccc(O*)cc1; ξE = NC(CCC(=O)O)C(=O)O; Cbz = O=C(OCc1ccccc1)*

What was measured:
Human TG2 = biological target: T1, Human TG2 (Homo sapiens, UniProt P21980); set-up: method as in PMID 35158154, PMID 28858494; conditions: read-out: KM of substrate for TG2; cited from earlier work
T1 construct: made in house
T1 sequence (P21980 1-687): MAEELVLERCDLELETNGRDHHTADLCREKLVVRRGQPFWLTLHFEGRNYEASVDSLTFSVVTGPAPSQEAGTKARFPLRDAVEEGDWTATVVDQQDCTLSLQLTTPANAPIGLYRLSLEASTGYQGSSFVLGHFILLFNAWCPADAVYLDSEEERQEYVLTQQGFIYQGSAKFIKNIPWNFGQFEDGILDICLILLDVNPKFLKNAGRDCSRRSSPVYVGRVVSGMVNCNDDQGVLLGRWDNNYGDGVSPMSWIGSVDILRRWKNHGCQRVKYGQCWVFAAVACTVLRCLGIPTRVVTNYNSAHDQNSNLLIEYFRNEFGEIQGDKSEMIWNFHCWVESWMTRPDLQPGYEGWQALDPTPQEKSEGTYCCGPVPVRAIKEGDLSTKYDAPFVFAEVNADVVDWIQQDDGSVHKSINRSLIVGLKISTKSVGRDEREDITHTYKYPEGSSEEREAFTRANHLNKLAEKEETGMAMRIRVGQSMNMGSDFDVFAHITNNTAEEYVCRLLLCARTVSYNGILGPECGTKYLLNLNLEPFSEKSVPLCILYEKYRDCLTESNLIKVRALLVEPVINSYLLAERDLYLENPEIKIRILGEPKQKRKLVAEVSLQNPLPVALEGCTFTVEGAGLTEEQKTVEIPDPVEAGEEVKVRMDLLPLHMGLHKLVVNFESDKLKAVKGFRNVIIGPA

[1] = biological target: T2, Thrombin-activated human FXIIIa (Homo sapiens, UniProt P00488); test: Fluorescence-quenched A101 isopeptidase assay of FXIIIa inhibition kinetics; format: biochemical; conditions: 0, 100, 200, 320 µM
T2 construct: purchased Zedira GmbH T070
T2 sequence (P00488 39-732 limits assumed): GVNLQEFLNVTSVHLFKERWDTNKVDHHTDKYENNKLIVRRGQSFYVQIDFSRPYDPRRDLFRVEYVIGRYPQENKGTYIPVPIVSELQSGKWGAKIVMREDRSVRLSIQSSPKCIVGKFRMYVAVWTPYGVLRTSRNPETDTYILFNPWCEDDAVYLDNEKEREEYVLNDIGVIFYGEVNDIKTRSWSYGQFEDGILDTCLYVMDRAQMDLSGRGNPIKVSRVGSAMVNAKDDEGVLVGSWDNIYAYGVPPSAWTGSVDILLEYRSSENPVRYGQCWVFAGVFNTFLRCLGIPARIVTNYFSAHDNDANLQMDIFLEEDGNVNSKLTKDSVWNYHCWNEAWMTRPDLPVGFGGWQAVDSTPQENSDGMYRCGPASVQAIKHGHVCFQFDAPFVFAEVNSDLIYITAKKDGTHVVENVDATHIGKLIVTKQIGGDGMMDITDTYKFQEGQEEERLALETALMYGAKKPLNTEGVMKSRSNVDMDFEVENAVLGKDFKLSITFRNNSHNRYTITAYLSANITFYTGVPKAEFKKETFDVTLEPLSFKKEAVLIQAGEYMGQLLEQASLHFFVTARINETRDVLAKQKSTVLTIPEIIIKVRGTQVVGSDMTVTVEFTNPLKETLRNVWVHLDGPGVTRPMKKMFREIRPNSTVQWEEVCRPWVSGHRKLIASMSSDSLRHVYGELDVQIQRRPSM

| Structure (SMILES) | Km (Human TG2) [µM] | traces in FXIIIa A101 inhibition assay (fluorescence interference control) [1] |
| --- | --- | --- |
| O=C(O)CNC(=O)C(CCC(=O)Oc1ccc([N+](=O)[O-])cc1)NC(=O)OCc1ccccc1 (centres unmarked) [AL5, Cbz-Glu(ɣ-p-nitrophenyl ester)Gly-OH] (Cbz-[ξE](ONp)-Gly-OH) | 10 | – |
| CN(C)c1cccc2c(S(N)(=O)=O)cccc12 [Dansyl amide] | – | nearly identical traces as those obtained using the dansylated inhibitor library |
